Common to all, as to assay: Kinase binding assay (kinase-tagged T7 phage, affinity beads, qPCR), Kd
(In general: In qPCR the cycle at which signal appears reflects the starting amount.)

In one assay the target is T1, FGFR2 (Homo sapiens, UniProt P21802).
T1 construct: made in house; host or cells: E. coli (BL21-derived), T7 phage
Particulars: read-out: FGFR2 (Kd nM). The gist of the method: (§1)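 T7 phage displaying each kinase, grown in a BL21-derived E. coli host at 32° C until lysis, competed with test compound for biotinylated ligand immobilised on streptavidin beads. Bead-bound kinase was eluted and quantified by qPCR. Kd came from an 11-point 3-fold dilution series fitted to the Hill equation with slope fixed at −1.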

Another assay has as its target T2, FGFR4 (Homo sapiens, UniProt P22455).
T2 construct: made in house; host or cells: E. coli (BL21-derived), T7 phage
Particulars: read-out: FGFR4 (Kd nM). A digest of the protocol:
as §1

The next assay addresses T3, FGFR1 (Homo sapiens, UniProt P11362).
T3 construct: made in house; host or cells: E. coli (BL21-derived), T7 phage
Particulars: read-out: FGFR1 (Kd nM). A digest of the protocol:
as §1

In a further assay the target is T4, FGFR3 (Homo sapiens, UniProt P22607).
T4 construct: made in house; host or cells: E. coli (BL21-derived), T7 phage
Particulars: read-out: FGFR3 (Kd nM). A digest of the protocol: as §1

The next assay has as its target T5, FGFR3 (V555M) (Homo sapiens, UniProt P22607, V555M).
T5 construct: made in house; host or cells: E. coli (BL21-derived), T7 phage
Particulars: V555M mutant; read-out: FGFR3 (V555M) (Kd nM). The gist of the method: as §1

Structures are written as SMILES.

T3 sequence (P11362 22-822): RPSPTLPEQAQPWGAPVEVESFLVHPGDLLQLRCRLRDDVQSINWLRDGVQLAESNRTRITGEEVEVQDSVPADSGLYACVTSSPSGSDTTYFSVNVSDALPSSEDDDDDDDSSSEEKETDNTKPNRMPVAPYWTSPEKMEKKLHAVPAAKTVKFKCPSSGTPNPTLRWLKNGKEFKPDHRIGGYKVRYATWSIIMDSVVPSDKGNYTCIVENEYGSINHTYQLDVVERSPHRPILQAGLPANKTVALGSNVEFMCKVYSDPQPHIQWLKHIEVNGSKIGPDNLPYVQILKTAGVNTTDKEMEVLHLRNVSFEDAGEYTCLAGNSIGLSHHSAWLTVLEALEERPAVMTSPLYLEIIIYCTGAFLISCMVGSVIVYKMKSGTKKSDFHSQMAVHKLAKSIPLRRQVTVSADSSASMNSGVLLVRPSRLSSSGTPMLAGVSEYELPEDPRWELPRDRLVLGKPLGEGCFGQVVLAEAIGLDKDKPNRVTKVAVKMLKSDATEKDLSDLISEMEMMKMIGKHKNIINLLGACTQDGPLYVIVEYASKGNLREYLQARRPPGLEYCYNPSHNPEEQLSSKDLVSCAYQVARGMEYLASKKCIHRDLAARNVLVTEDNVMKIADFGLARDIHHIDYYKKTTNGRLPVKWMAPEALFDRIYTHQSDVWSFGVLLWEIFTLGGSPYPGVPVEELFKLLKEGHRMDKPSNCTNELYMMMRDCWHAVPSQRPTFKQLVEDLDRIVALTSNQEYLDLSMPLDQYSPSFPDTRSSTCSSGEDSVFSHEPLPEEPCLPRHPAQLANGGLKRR
T2 sequence (P22455 22-802): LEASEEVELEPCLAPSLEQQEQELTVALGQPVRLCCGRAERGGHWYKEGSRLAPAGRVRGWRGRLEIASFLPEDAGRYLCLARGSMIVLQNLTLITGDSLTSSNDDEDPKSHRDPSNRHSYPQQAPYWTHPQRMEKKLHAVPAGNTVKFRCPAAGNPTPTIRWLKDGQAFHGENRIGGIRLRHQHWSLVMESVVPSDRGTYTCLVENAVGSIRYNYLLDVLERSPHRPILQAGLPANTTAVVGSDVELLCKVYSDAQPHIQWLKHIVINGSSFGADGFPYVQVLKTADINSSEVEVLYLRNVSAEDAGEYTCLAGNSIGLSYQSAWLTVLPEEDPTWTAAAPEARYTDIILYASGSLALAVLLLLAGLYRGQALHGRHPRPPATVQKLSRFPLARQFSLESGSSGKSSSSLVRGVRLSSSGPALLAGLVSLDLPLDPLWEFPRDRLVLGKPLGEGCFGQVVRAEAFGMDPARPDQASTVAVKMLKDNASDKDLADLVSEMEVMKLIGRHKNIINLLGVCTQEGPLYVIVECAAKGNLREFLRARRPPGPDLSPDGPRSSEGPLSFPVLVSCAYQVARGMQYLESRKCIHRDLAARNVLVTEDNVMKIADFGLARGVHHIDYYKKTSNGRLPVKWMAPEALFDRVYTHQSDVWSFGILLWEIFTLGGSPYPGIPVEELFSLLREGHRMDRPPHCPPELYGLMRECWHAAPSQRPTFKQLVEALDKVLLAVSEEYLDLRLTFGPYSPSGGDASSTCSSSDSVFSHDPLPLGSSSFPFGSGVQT
T1 sequence (P21802 22-821): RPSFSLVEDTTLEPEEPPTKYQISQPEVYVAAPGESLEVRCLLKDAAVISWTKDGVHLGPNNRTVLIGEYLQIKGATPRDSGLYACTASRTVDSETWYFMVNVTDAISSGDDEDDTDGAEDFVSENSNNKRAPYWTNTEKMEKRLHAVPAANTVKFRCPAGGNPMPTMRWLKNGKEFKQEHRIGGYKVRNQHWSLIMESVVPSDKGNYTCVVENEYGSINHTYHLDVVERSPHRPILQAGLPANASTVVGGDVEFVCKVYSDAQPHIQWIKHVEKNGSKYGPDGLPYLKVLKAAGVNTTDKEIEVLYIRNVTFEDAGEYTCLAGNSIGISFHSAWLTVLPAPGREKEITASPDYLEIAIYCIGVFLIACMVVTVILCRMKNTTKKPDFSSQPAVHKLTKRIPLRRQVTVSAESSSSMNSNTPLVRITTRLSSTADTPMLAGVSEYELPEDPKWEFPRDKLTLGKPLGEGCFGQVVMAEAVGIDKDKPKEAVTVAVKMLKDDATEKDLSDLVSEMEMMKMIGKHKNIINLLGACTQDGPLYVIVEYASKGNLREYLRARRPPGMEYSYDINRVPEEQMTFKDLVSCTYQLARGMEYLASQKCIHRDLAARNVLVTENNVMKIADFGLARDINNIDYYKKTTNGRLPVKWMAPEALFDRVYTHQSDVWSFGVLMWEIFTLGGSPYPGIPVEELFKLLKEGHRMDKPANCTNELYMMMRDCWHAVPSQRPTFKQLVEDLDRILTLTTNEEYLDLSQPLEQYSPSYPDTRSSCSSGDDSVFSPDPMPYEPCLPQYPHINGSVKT
T5 sequence (P22607 23-806 V555M): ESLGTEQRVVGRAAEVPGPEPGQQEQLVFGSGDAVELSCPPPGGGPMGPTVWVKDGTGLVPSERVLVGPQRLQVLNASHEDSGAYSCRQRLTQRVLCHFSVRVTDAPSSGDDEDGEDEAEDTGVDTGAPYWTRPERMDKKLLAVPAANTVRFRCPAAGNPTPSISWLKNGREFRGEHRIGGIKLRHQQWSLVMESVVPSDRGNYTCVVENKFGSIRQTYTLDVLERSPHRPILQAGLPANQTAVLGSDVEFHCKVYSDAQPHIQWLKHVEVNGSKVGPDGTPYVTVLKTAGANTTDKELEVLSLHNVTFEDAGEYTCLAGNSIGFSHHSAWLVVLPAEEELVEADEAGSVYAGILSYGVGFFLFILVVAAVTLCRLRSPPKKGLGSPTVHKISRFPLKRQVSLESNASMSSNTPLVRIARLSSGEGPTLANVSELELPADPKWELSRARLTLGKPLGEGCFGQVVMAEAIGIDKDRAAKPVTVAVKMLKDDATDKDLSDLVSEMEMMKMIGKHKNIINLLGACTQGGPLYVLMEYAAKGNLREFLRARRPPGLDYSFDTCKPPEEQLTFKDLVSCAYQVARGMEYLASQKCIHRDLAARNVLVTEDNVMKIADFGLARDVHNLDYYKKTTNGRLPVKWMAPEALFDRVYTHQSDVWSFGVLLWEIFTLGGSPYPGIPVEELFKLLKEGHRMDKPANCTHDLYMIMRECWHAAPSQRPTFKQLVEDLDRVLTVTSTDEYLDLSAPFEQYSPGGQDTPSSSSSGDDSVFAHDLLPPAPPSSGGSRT
T4 sequence (P22607 23-806): as the sequence (P22607 23-806 V555M) above, with M533V counted along it

The Kd is a measure of binding affinity in units of concentration. For the compound `CNC1(C)CN(c2ncc(-c3n[nH]c4ccc(O[C@H](C)c5c(Cl)cncc5Cl)c(F)c34)cc2F)C1` [Example 197, (R)-1-(5-(5-(1-(3,5-dichloropyridin-4-yl)ethoxy)-4-fluoro-1H-indazol-3-yl)-3-fluoropyridin-2-yl)-N,3-dimethylazetidin-3-amine], the Kd on FGFR2 was over 1000 nM; on FGFR4 it was 50 to 300 nM; on FGFR1 it was 300 to 1000 nM; on FGFR3 it was 50 to 300 nM; on FGFR3 (V555M), 1 to 50 nM.
On to `C=CCNC1(C)CN(c2ncc(-c3n[nH]c4ccc(O[C@H](C)c5c(Cl)cncc5Cl)cc34)cn2)C1` [Example 234, (R)-N-ally1-1-(5-(5-(1-(3,5-dichloropyridin-4-yl)ethoxy)-1H-indazol-3-yl)pyrimidin-2-yl)-3-methylazetidin-3-amine], for which the Kd on FGFR2, at FGFR4, at FGFR1, on FGFR3 and on FGFR3 (V555M) was 1 to 50 nM in each case.
Consider `C[C@@H](Oc1ccc2[nH]nc(-c3ccc(N4CC(C)(N5C[C@H]6C[C@@H]5CO6)C4)nc3)c2c1)c1c(Cl)cncc1Cl` [Example 231, (1R,4R)-5-(1-(5-(5-((R)-1-(3,5-dichloropyridin-4-yl)ethoxy)-1H-indazol-3-yl)pyridin-2-yl)-3-methylazetidin-3-yl)-2-oxa-5-aza-bicyclo[2.2.1]hep-tane], for which the Kd at FGFR2, at FGFR4, on FGFR1, on FGFR3 and at FGFR3 (V555M) was 1 to 50 nM in each case.
Regarding `C[C@@H](Oc1ccc2[nH]nc(-c3cnc(N4CC(C)(CP(C)(C)=O)C4)c(F)c3)c2c1F)c1c(Cl)cncc1Cl` [Example 172, (R)-((1-(5-(5-(1-(3,5-dichloro-pyridin-4-yl)ethoxy)-4-fluoro-1H-inda-zol-3-yl)-3-fluoropyridin-2-yl)-3-methylazetidin-3-yl)methyl)dimethyl-phosphine oxide], the Kd at FGFR2 fell in the range of 50 to 300 nM; at FGFR4, 50 to 300 nM; at FGFR1, 300 to 1000 nM; on FGFR3 it was 50 to 300 nM; on FGFR3 (V555M), 1 to 50 nM.
As to `C[C@H](Oc1ccc2[nH]nc(-c3cnc(N4CC(C)(N(C)C)C4)c(F)c3)c2c1)c1c(Cl)cncc1Cl` [Example 201, 1-[5-[5-[(1S)-1-(3,5-dichloro-4-pyridyl)ethoxy]-1H-indazol-3-yl]-3-fluoro-2-pyridyl]-N,N,3-trimethyl-azetidin-3-amine], the Kd at FGFR2 was 300 to 1000 nM; on FGFR4 it was 300 to 1000 nM; at FGFR1 it was 300 to 1000 nM; at FGFR3 it was 50 to 300 nM; on FGFR3 (V555M), 300 to 1000 nM.
On to `C[C@@H](Oc1ccc2[nH]nc(-c3cnc(N4CC(C)(CS(C)(=O)=O)C4)c(F)c3)c2c1F)c1c(Cl)cncc1Cl` [Example 196, (R)-5-(1-(3,5-dichloropyridin-4-yl)ethoxy)-4-fluoro-3-(5-fluoro-6-(3-methyl-3-((methyl-sulfonyl)meth-yl)azetidin-1-yl)pyridin-3-yl)-1H-indazole], for which the Kd on FGFR2 was over 1000 nM; at FGFR4, 300 to 1000 nM; on FGFR1 it was over 1000 nM; at FGFR3, 300 to 1000 nM; on FGFR3 (V555M), 50 to 300 nM.
Take `C[C@@H](Oc1ccc2[nH]nc(-c3cnc(N4CC(C)(N5CCOCC5)C4)c(F)c3)c2c1F)c1c(Cl)cncc1Cl` [Example 183, (R)-4-(1-(5-(5-(1-(3,5-dichloro-pyridin-4-yl)ethoxy)-4-fluoro-1H-indazol-3-yl)-3-fluoropyridin-2-yl)-3-methylazetidin-3-yl)morpholine]: the Kd on FGFR2 is over 1000 nM; on FGFR4, 50 to 300 nM; at FGFR1 it was 300 to 1000 nM; at FGFR3, 50 to 300 nM; at FGFR3 (V555M), 50 to 300 nM.

Source of the values: patent publication US20250368666A1, “INDAZOLE COMPOUNDS” (TYRA BIOSCIENCES, INC., priority 2022, published 2025).
